Experiment [1] relates to cisplatin resistance cells (K652/CDDP). The experiment in a line: Extinction rate, OR 36-3 and cisplatin, cisplatin resistance cells. The experiment is classed as cell-based, human. The conditions noted are these: 5 μg/ml of the cisplatin, single; resistance cells versus K 562 parent cells. The method, then: (§1) The extinction rates were measured in accordance with the same procedures of Example 2 except that K 562 parent cells (human bone marrow leukemia) and its cisplatin resistance cells (K652/CDDP) were employed in place of the human leutecyte strain cell employed in Comparative Example 1 and Example 2, and cisplatin was employed in place of the vincristin.

Experiment [2] relates to human leutecyte strain cell (RPMI-8402). The experiment in a line: Extinction effect of compatible administration of l-OHP and a compatible agent on tumor cells (compatible efficiency OE). The format is cell-based. The settings on record: for Compatible Effects of l-OHP and Compatible Agent, Simultaneous Administration: both added day 1. In outline: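 RPMI-8402 cells (10^6/ml, 15% fetal bovine serum) got l-OHP (5 or 1 μg/ml) with a partner agent at high or low dose (e.g. cisplatin 1 or 0.5, 5-FU 10 or 5 μg/ml; irinotecan fixed at 10 μg/ml) on the same day or staggered days 1–4 in either order. Cell kill was corrected for the untreated control. A combination index of 85–115% was scored additive, >115% synergistic.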

Experiment [3] concerns K 562 parent cells (human bone marrow leukemia). In words: Extinction rate, OR 36-3 and cisplatin, K 562 parent cells. The format is cell-based. The conditions noted are these: 2 μg/ml of the cisplatin, single. The method, then:
as §1

[4] abbreviates: larger dosage of compatible agent (μg/ml: cisplatin 1, 5-FU 10, irinotecane 10, adriamycin 0.05, vincristin 0.05, vindecin 0.05, etoposide 1, bleomycin 10, mitoxantrone 0.1, mitomycine 1), l-OHP 1 μg/ml (5 μg/ml with irinotecane) added day 1.
Setting [5] is: larger dosage of compatible agent added day 1 (μg/ml: cisplatin 1, 5-FU 10, irinotecane 10, adriamycin 0.05, vincristin 0.05, vindecin 0.05, etoposide 1, bleomycin 10, mitoxantrone 0.1, mitomycine 1), l-OHP 1 μg/ml (5 μg/ml with irinotecane).
[6] abbreviates: smaller dosage of compatible agent (μg/ml: cisplatin 0.5, 5-FU 5, irinotecane 10, adriamycin 0.01, vincristin 0.01, vindecin 0.01, etoposide 0.5, bleomycin 1, mitoxantrone 0.05, mitomycine 0.5), l-OHP 1 μg/ml added day 1.
[7] abbreviates: smaller dosage of compatible agent added day 1 (μg/ml: cisplatin 0.5, 5-FU 5, irinotecane 10, adriamycin 0.01, vincristin 0.01, vindecin 0.01, etoposide 0.5, bleomycin 1, mitoxantrone 0.05, mitomycine 0.5), l-OHP 1 μg/ml.

The source of these data is patent US6518278B1, “Carcinostatic substance for compatible administration, process of administrating same and process of rapidly inspecting same” (Debio Pharm S.A., priority 1994, dated 2003).

“Also recorded” adds a separate entry of the source.

Consider `N.N.[Cl][Pt][Cl]` [cisplatin], for which, in experiment [1], the “extinction rates against the parent cells and the resistance cells compared” value is on record as “substantially the same as each other”. In addition, the “compatible administration effect with l-OHP, summary in words” value in experiment [2] (compatible administration with l-OHP) was “the additive effect or the synergistic effect regardless of the administration method and the dosage in almost all the cases; also recorded: synergistic effects can be obtained in all the cases when the cisplatin and the l-OHP are simultaneously administrated and the l-OHP is administrated before the cisplatin; also recorded: effect about twice the expected value is obtained in most cases when the l-OHP administration is preceded and the cisplatin is added later”. In addition, in experiment [2] (setting [4]), the “Compatible Effects of l-OHP and Compatible Agent, Time Lag Administration, Addition Administration of Compatible Agent day 2” value was “• (•: Synergistic Effect)”; the “Compatible Effects of l-OHP and Compatible Agent, Time Lag Administration, Addition Administration of Compatible Agent day 3” value is recorded as “• (•: Synergistic Effect)”; the “Compatible Effects of l-OHP and Compatible Agent, Time Lag Administration, Addition Administration of Compatible Agent day 4” value is given as “• (•: Synergistic Effect)”. Further, the “Compatible Effects of l-OHP and Compatible Agent, Simultaneous Administration” value in experiment [2] (larger dosage of compatible agent (μg/ml: cisplatin 1, 5-FU 10, irinotecane 10, adriamycin 0.05, vincristin 0.05, vindecin 0.05, etoposide 1, bleomycin 10, mitoxantrone 0.1, mitomycine 1), l-OHP 1 μg/ml (5 μg/ml with irinotecane)) is listed as “• (•: Synergistic Effect)”. In addition, in experiment [2] (setting [5]), the “Compatible Effects of l-OHP and Compatible Agent, Time Lag Administration, Addition Administration of l-OHP day 2” value is on record as “• (•: Synergistic Effect)”; the “Compatible Effects of l-OHP and Compatible Agent, Time Lag Administration, Addition Administration of l-OHP day 3” value is listed as “◯ (◯: Additive Effect)”; the “Compatible Effects of l-OHP and Compatible Agent, Time Lag Administration, Addition Administration of l-OHP day 4” value is on record as “◯ (◯: Additive Effect)”. In experiment [2] (setting [6]), the “Compatible Effects of l-OHP and Compatible Agent, Time Lag Administration, Addition Administration of Compatible Agent day 2” value is “• (•: Synergistic Effect)”; the “Compatible Effects of l-OHP and Compatible Agent, Time Lag Administration, Addition Administration of Compatible Agent day 3” value is given as “• (•: Synergistic Effect)”; the “Compatible Effects of l-OHP and Compatible Agent, Time Lag Administration, Addition Administration of Compatible Agent day 4” value is listed as “• (•: Synergistic Effect)”. In addition, the “Compatible Effects of l-OHP and Compatible Agent, Simultaneous Administration” value in experiment [2] (smaller dosage of compatible agent (μg/ml: cisplatin 0.5, 5-FU 5, irinotecane 10, adriamycin 0.01, vincristin 0.01, vindecin 0.01, etoposide 0.5, bleomycin 1, mitoxantrone 0.05, mitomycine 0.5), l-OHP 1 μg/ml) is given as “◯ (◯: Additive Effect)”. In addition, in experiment [2] (setting [7]), the “Compatible Effects of l-OHP and Compatible Agent, Time Lag Administration, Addition Administration of l-OHP day 2” value is “Δ (Δ: Below Additive Effect)”; the “Compatible Effects of l-OHP and Compatible Agent, Time Lag Administration, Addition Administration of l-OHP day 3” value is listed as “Δ (Δ: Below Additive Effect)”; the “Compatible Effects of l-OHP and Compatible Agent, Time Lag Administration, Addition Administration of l-OHP day 4” value is “Δ (Δ: Below Additive Effect)”. Further, the “extinction rate of the parent cells relative to that of the resistance cells” value in experiment [3] is “about twice”.
